# Reference: patent US8747891B2, “Ceramide anionic liposome compositions” (The Penn State Research Foundation, priority 2011, dated 2014)
# Assays:
# [1] = tested on: primary human AML cells; assay: Clonogeneic growth in semisolid media; format: cell-based; details: 12-14 days in semi-solid medium; FIG. 3A
# Source text: For FIG. 3A, primary human AML cells (n=5) were thawed and grown for 12-14 days in semi-solid medium with the indicated concentration of Lip-C6 or Lip-ghost and/or vinblastine.
# [2] = tested on: Pane 1 pancreatic cancer cells; assay: MTS cell viability assay; format: cell-based; details: 24 hrs; 3.2 μM liposomes; 0.01, 0.1 or 1 μM vinblastine; p<0.05 free vs encapsulated vinblastine
# Description: Pane 1 pancreatic cancer cells were treated with 3.2 μM anionic (A) and neutral ceramide (C6) or non-ceramide nanoliposomes that either contained 0.01, 0.1 or 1 μM vinblastine or PBS. Ghost liposomes contained no ceramide or vinblastine. Unencapsulated (free) vinblastine was also administered at similar concentrations. All treatments were for 24 hrs.
# Cell viability was assessed by MTS assay, which measures cellular respiration as a function of reduction of MTS to formazene at 490 nm. […] N=6 individual samples for each condition, replicated in triplicate.
# MTS (3-(4,5-dimethylthiazol-2-yl)-5-(3-carboxymethoxyphenyl)-2-(4-sulfophenyl)-2H-tetrazolium), in the presence of phenazine methosulfate (PMS), produces a reduced formazan product, whose purple color can be assessed. In living cells, reduced formazan has an absorbance maximum at 490-500 nm in phosphate-buffered saline. The MTS assay is often described as a ‘one-step’ MTT assay, which offers the convenience of adding the reagent straight to the cell culture without the intermittent steps required in the MTT assay. However this convenience makes the MTS assay susceptible to cololmetric interference as the intermittent steps in the MTT assay remove traces of colored compounds, whilst these remain in the microtiter plate in the one-step MTS assay.
smiles,measurement,setting,value
CC[C@]1(O)C[C@@H]2CN(CCc3c([nH]c4ccccc34)[C@@](C(=O)OC)(c3cc4c(cc3OC)N(C)[C@H]3[C@@](O)(C(=O)OC)[C@H](OC(C)=O)[C@]5(CC)C=CCN6CC[C@]43[C@@H]65)C2)C1 [vinblastine],growth and survival / colony formation,[1],potentiates the inhibitory activity of C6 ceramide nanoliposomes
same,cell viability (MTS),[2],Only the high concentration of free vinblastine reduced cell viability
